Experimental findings from publication PMC10511319, “Bacterial pathogens deliver water- and solute-permeable channels to plant cells” (Nature, 2023) are described below.

The target in one assay is T1, DspE (Erwinia amylovora, UniProt O54581).
T1 construct: full-length untagged ORF in pGH19, cRNA-injected Xenopus laevis oocytes; strain of oocyte clone not restated
Format: cell-based. Conditions: current at 50 mV test pulse; ND96 saline, pH 7.5; channel block.

Assay [1] addresses T2, AvrE (Pseudomonas syringae group genomosp. 3, UniProt Q887C9).
T2 construct: full-length untagged ORF in pGH19, cRNA-injected Xenopus laevis oocytes
Nature of the assay: oocyte fluorescent dye uptake. Format: cell-based. The conditions noted are these: 5 µg/ml fluorescein in ND96 saline; 20 ng avrE cRNA; permeation through channel.

For a further assay, the target named is T3, DspE (MBP–DspE) (Erwinia amylovora, UniProt O54581).
T3 construct: full-length DspE fused to MBP-His8-PPX-Flag; made in E. coli BL21(DE3)
Nature of the assay: liposome carboxyfluorescein release. Format: biochemical. Conditions: soybean liposomes; 0.05–0.15 µM DspE; 20 mM HEPES, 300 mM NaCl, pH 8.0; channel block.

Assay [2] deals with T2, AvrE. In words: two-electrode voltage clamp, Xenopus oocytes. Format: cell-based. The conditions noted are these: current at 50 mV test pulse; ND96 saline, pH 7.5; channel block. A general note: Two-electrode voltage clamp is typically applied to oocytes expressing channels or transporters.

T1 sequence (O54581 whole entry): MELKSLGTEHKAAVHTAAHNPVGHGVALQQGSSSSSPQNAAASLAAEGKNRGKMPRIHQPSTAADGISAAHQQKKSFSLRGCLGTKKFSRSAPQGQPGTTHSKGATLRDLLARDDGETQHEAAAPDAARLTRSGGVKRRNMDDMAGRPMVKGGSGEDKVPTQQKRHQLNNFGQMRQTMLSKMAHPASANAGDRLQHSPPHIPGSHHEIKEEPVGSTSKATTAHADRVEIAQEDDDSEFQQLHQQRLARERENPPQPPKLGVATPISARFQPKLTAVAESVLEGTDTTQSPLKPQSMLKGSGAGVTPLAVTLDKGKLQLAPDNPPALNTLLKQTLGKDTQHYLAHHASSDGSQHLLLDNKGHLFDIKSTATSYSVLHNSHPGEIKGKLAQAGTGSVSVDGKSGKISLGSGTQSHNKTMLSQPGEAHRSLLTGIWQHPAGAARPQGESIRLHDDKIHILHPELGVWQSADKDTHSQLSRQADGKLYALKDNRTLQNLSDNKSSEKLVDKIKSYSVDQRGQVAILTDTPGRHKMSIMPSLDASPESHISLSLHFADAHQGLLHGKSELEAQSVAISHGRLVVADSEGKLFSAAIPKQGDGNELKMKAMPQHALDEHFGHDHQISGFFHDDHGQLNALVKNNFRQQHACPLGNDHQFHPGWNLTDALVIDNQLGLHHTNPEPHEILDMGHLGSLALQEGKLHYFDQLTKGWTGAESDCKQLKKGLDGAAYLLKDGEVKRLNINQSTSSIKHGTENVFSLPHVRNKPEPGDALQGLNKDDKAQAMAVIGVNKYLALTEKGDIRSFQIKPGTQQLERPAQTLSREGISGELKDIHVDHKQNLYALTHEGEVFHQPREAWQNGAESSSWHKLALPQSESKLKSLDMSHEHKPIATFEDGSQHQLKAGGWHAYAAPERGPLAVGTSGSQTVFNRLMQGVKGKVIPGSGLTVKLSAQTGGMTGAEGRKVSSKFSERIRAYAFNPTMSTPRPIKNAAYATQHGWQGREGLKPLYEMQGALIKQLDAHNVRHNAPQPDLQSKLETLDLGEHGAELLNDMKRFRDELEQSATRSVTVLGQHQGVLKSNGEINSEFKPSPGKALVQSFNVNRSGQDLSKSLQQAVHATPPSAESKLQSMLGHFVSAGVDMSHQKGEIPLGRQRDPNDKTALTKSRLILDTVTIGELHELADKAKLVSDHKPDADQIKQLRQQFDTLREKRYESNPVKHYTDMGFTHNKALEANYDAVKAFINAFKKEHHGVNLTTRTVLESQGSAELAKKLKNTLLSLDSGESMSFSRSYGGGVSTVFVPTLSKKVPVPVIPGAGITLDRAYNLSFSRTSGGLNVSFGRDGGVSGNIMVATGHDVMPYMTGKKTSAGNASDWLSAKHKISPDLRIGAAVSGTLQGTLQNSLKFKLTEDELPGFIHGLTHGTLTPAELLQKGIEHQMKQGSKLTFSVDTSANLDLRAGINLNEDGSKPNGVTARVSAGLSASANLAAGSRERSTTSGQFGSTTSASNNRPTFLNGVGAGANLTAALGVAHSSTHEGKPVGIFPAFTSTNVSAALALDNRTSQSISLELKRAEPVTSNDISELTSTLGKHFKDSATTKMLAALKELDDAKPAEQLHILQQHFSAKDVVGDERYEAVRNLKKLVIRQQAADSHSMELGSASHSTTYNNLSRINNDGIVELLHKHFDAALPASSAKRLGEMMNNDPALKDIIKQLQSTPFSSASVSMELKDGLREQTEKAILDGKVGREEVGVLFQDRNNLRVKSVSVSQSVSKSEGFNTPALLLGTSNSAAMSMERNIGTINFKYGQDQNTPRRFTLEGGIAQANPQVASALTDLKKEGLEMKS
T2 sequence (Q887C9 whole entry): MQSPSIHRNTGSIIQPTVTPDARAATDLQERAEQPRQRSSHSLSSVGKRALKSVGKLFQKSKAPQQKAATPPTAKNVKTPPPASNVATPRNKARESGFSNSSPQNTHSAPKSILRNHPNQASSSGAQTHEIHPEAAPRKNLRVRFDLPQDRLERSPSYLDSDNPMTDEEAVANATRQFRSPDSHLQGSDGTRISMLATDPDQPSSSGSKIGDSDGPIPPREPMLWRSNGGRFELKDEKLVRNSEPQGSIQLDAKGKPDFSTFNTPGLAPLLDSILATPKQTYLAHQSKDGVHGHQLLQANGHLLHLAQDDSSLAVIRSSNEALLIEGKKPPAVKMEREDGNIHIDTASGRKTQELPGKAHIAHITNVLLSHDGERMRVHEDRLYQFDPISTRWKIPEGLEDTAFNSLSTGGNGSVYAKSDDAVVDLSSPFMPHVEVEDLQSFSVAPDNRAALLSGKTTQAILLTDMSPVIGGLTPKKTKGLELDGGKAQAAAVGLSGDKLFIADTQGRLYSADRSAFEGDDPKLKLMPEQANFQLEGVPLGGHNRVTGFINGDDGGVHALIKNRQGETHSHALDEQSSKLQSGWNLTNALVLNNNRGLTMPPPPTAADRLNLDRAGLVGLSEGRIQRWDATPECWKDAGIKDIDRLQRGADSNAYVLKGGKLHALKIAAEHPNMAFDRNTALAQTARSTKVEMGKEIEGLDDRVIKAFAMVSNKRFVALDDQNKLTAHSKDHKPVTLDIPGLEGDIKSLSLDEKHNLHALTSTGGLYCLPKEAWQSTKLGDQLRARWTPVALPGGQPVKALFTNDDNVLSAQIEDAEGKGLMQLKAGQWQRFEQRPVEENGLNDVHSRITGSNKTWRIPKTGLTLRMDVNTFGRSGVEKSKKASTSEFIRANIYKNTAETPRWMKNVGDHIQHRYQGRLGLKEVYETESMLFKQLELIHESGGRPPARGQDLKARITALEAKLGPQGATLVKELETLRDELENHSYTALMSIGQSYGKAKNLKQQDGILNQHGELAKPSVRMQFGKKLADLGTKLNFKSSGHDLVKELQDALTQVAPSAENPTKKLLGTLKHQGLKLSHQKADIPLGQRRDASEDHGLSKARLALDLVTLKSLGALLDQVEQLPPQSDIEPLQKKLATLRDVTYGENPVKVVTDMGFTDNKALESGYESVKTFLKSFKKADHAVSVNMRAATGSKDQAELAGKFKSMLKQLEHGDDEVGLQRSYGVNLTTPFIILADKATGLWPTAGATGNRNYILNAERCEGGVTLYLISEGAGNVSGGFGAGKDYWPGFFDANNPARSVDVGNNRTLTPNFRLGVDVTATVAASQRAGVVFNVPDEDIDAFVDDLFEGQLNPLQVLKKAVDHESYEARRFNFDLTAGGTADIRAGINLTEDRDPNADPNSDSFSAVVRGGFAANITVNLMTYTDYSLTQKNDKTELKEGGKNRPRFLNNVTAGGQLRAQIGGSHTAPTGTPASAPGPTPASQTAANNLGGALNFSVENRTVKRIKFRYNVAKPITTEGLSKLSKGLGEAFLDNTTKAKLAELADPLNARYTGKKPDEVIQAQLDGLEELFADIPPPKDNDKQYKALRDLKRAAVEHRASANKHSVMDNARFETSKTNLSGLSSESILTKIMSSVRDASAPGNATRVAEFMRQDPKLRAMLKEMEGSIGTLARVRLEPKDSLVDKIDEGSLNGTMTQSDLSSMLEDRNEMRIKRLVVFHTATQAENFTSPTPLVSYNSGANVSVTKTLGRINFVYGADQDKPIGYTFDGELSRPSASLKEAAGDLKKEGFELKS

As a reminder, the % inhibition is the share of the control response that was lost under treatment. Lower therefore signals a response near the control. With PAMAM G0, the “% inhibition at 10 mM” value at DspE turned out to be 68%.

Turning to `O=C1OC2(c3ccc(O)cc3Oc3cc(O)ccc32)c2ccccc21` [fluorescein], the “oocyte fluorescent dye uptake” value at AvrE [1] is given as “fluorescein entered oocytes expressing DspE or AvrE, whereas eGFP could not”.

The IC50 is the concentration at which inhibition is half-maximal. Lower therefore signals greater potency in that assay. With PAMAM G1, the “% inhibition at 10 mM” value is reported as 71% on DspE and 93% on AvrE [2]. Further, 31 µM corresponded to half-maximal inhibition against DspE (MBP–DspE) (IC50).
